Assay results: patent US6015820A, “4-Aryl-thio-pyridin-2(1H)-ones, medicines containing them and their uses in the treatment of illnesses linked to HIV” (priority 1995, dated 2000)
Read-outs that look alike come from different tables or passages of the source.

Columns and labels:
[1] = biological target: T1, IT of recombinant HIV-1 (Human immunodeficiency virus type 1 group M subtype B, UniProt P03369); test: inhibition of the inverse transcriptase of recombinant HIV-1; format: biochemical
T1 construct: purify the IT enzyme of the recombinant HIV-1; made in house; host or cells: yeast cells transformed with the pAB 24/IT-4 vector
Description: Yeast cells transformed with the pAB 24/IT-4 vector were used to purify the IT enzyme of the recombinant HIV-1 as described by Sallafranque-Andreola et al. (1989 Eur. J. Biochem. 184, 364-374).
Incubation was carried out at 37° C. for 10 minutes in the presence of various matrix-primers.
a) Poly C-oligo dG: the reaction mixture contained a final volume of 0.05 ml, Tris-HCl 50 mM pH 8.0, MgCl2 5 mM, dithiothreitol 4 mM, 0.48 A260 /ml of poly C-oligo dG (5:1), 1.0 μCi of [^3 H]dGTP (28 Ci/mmole), dGTP 2 μM, KCl 80 mM, 1 μg of bovine serum albumin and IT 20-50 nM.
b) Poly A-oligo dT: the same conditions as in a), except that 0.48 A260 /ml of poly A-oligo dT (5:1), 0.5 μCi of [^3 H]dTTP (46 Ci/mmole), dTTP 20 μM were used.
The reactions were stopped by adding in the cold 1 ml of 10% trichloroacetic acid plus sodium pyrophosphate 0.1 M. The precipitates were filtered through nitrocellulose membranes, washed with 2% trichloroacetic acid, dried and counted in a PPO/POPOP/toluene scintillation mixture.
All the compounds were dissolved in dimethyl#sulphoxide (DMSO). The test samples were prepared in the presence of the same final concentration of DMSO. IC50 is the concentration required to inhibit the activity of the IT of the recombinant HIV-1 by 50%.

[2] = test system: CEM-SS cells; test: cytotoxicity on non-infected cells (MTT test); format: cell-based; conditions: MTT, 5 days
Description: (§1) In parallel experiments, the cytotoxicity of the molecules was measured on non-infected cells, after an incubation of 5 days in the presence of these molecules, by using a […] titration (MTT test) based on the ability of the mitochondrial dehydrogenases of the living cells to reduce 3-(4,5-dimethylthiazol-2-yl)-2,5-diphenyltetrazolium bromide in formazan (Mosmann et al. J. Immunol. Methods ([…]), 65, 55-63). The concentration cytotoxic at 50% (CC50) is the concentration at which the DO540 has been reduced to half and is calculated by using the program mentioned above.

[3] = cytotoxicity on non-infected cells (MTT test); format: cell-based; conditions: human; Table 2; non-infected CEM-SS cells, MTT, 5 days
Description: as §1

[4] = test system: HIV-1 resistant to Nevirapine (N119); test: microbe, parasite or virus in culture; format: cell-based; conditions: for IC50: Human immunodeficiency virus 1, CEM-SS, read-out: IC50, strain resistant to Nevirapine; for SI (selectivity index): Table 3, strain resistant to Nevirapine
Description: The effects of the compounds were evaluated on the replication of HIV-1 (see Table 2) on CEM-SS cells (cell lines of the lymphocytic lineage) strongly infected with HIV-1 LAI as described by Moog et al. (Antiviral Research (1994), 24, 275-288). The CEM-SS and the HIV-1 resistant to Nevirapine (N119) carrying a point mutation at codon 181 of the IT, were supplied respectively by P. NARA and D. RICHMAN through the intermediary of the AIDS Research and Reference Reagent Program, Division of AIDS, NIAID, NIH (USA) (Catalogue references : No. 776 and No. 1392).
(§2) The virus production was measured by quantifying the activity of the inverse transcriptase associated with viral particles released into the culture supernatant. In short, cells were infected with 100 TCID50 for 30 minutes; after adsorption of the virus, unbound particles were removed by two washings and the cells were cultivated in the presence of different concentrations of the compounds tested for 5 days before determining the viral production. The concentration inhibiting 50% of the viral multiplication (IC50) came from the computer plot of the median effect of the dose effect results (Chou et al. Elsevier Science Publishers, Cambridge U.K. (1985), 19-28).

[5] = test system: HIV-1 LAI; test: anti-HIV-1 activity: replication of HIV-1 LAI on CEM-SS cells; format: cell-based; conditions: Table 2, HIV-1 LAI, CEM-SS cells; for IC50: Human immunodeficiency virus 1, 120 h, 5 days, read-out: IC50, anti-HIV-1 activity
Description: The CEM-SS and the HIV-1 resistant to Nevirapine (N119) carrying a point mutation at codon 181 of the IT, were supplied respectively by P. NARA and D. RICHMAN through the intermediary of the AIDS Research and Reference Reagent Program, Division of AIDS, NIAID, NIH (USA) (Catalogue references : No. 776 and No. 1392).
as §2

[6] = test system: isolated virion HIV-1LAI; test: infectivity of the isolated virion after treatment with inhibitors (HT4LacZ cells); format: cell-based
Description: H9 cells chronically infected with HIV-1LAI (10^8 /ml) were cocultivated with MT4 cells (10^8 /ml) for 48 hours in an RMPI medium supplemented by 10% of calf foetal serum (CFS). The cells were then removed by centrifugation and then the supernatant liquid was filtered (0.45 μm) to remove residual cells and cell debris.
After having been incubated with the various inhibitors, the viral supernatants (200 μl) were deposited in the filtering part of a VectaSpin tube (WHATMAN) fitted with an ANAPORE membrane of porosity 0.02 μm. For 10 minutes they were subjected to centrifugation, the acceleration of which reached 6000 g at the filtering membrane. The viral residuums thereby obtained (10-15 μl ) were washed 3 times under the same conditions with 500 μl of RPMI then restored to their initial volumes with RPMI containing 10% of CFS.
The HT4LacZ-1 cells were kept in a DMEM medium (glucose 4.5 g/l) supplemented with 10% of calf foetal serum in the presence of Gentamycin (50 mg/l). These cells stemmed from Hela cells in which had been cloned, on the one hand the gene coding for the human CD4 so as to render them susceptible to infection by the HIV (Chesebro and Wehrly, 1988, J. Virol., 62, 3779-3788), and on the other hand the gene for β-Galactosidase which, placed under the dependent of the LTR of the HIV-1 served as a marker for the viral infection (Rocancourt et al. (1990) J. Virol. 1990 64-6, 2660-2688). When the virus infects such cells after its integration into the cellular genome, the production of the regulatory protein TAT activates the LTR of the HIV. The result is an activation of the gene of β-Galactosidase which leads to its production in the intracellular medium and more particularly in the nucleus. It is this protein that serves as a marker of the infection.
The evening of day 0, the HT4LacZ-1 cells were diluted at the rate of 75000 cells per ml of medium. 100 μl of this suspension was then distributed over a flat bottomed plate with 96 wells and was cultivated overnight at 37° C. (5% of CO2).
The morning of day 1, the supernatant liquid was removed by aspiration. Each well was then complemented with 200 μl of the viral supernatant dilutions to be tested. Each dilution was made in a DMEM medium (glucose 4.5 g/l) supplemented with 10% of CFS. The plates were then placed in an environment at 37° C. in the presence of 5% of CO2.
After 48 hours of culture, the supernatant liquid was aspirated, then each well was washed 3 times in PBS before being complemented with 200 μl of developing buffer (Tris-HCl 50 mM pH=8.5, ONPG 5 mg/ml β-mercapto-ethanol 7 μl/ml Triton×100 0.05%). After 4 hours of incubation at 37° C., the optical density of each well was measured.
The concentration of each of the inhibitors of the IT of the HIV-1 was adjusted to 50 mM in DMSO. The later dilutions were carried out on RPMI 1640. 2 μl of suitable dilutions of each of these inhibitors were added to 198 μl of a freshly unfrozen viral suspension. After 3 hours of incubation at ambient temperature, these suspensions were filtered on 0.02 μ VecraSpin tubes, then washed 3 times with 500 μl of RPMI 1640. The viral residuums were then adjusted to 200 μL with the culture medium (RPMI-10% CFS), then tested with regard to their infectivity on HT4LacZ cells.

SMILES | IC50 [1] [µM] | CC50 ([2]; Table 3, non-infected cells) [µM] | CC50 at 120 h [3] [µM] | IC50 [4] [µM] | IC50 [5] [µM] | SI (selectivity index) [5] | SI (selectivity index) [4] | CC50 ([2]; Table 2, non-infected CEM-SS cells) [µM] | IC50 ([1]; read-out: IC50, inhibition of the inverse transcriptase, Table 5, IT of recombinant HIV-1) [µM] | activity at 1 µM ([6]; Human immunodeficiency virus 1, 1 μM inhibitor, 3 h, 100 TCID50, compared with viral supernatant subjected to same treatments, mean of 1 to 4 experiments, read-out: Activity of the isolated virions after treatment) [%] | activity at 10 µM ([6]; Human immunodeficiency virus 1, 10 μM inhibitor, 3 h, 100 TCID50, compared with viral supernatant subjected to same treatments, mean of 1 to 4 experiments, read-out: Activity of the isolated virions after treatment) [%] | activity on the isolated virion (in words) ([6]; isolated virion)
Cc1c(Sc2ccccc2)n(COCc2ccccc2)c(=O)[nH]c1=O [BPT, 1-benzyloxymethyl-6-(phenylthio)thymine, reference compound] | 0.4 |  |  |  |  |  |  |  |  |  |  | 
Cc1cc(C)cc(Sc2c(C)cnc(O)c2[N+](=O)[O-])c1 [Compound 7a, 5-methyl-3-nitro-4-(3', 5'-dimethylphenyl)thiopyridin-2(1H)-one] | > 10 | > 10 | > 10 | > 10 | 0.12 | > 83 |  |  |  |  |  | 
CCc1cnc(O)c([N+](=O)[O-])c1Sc1cc(C)cc(C)c1 [Compound 7b, 5-ethyl-3-nitro-4-(3', 5'-dimethylphenyl)thio-pyridin-2(1H)-one] |  | > 10 | > 10 | 6.7 |  | > 111 | > 1 |  |  |  |  | 
Cc1cccc(Sc2c(C)c[nH]c(=O)c2[N+](=O)[O-])c1 [Compound 7e, 5-methyl-3-nitro-4-(3'-methylphenyl)thio-pyridin-2(1H)-one] | > 10 |  | > 10 |  |  |  |  |  |  |  |  | 
Cc1cc(C)cc(Sc2c([N+](=O)[O-])c(O)nc3ccccc23)c1 [Compound 7f, 3-nitro-4-(3', 5'-dimethylphenyl)-thiopuinoline-2(1H)-one] |  | > 10 |  | > 10 | 3.8 | > 26 |  | > 100 |  |  |  | 
Cc1cc(C)cc(Sc2c(C)cnc(O)c2N)c1 [Compound 8a, 3-amino-5-methyl-4-(3', 5'-dimethylphenyl)-thio-pyridin-2(1H)-one] | 0.1 | > 10 | > 10 | > 10 | 0.01 | > 1000 |  |  |  |  |  | 
CCc1cnc(O)c(N)c1Sc1cc(C)cc(C)c1 [Compound 8b, 3-amino-5-ethyl-4-(3', 5'-dimethylphenyl)thio-pyridin-2(1H)-one] |  | > 10 | > 10 | 6.7 | 0.01 | > 1000 | > 1 |  |  |  |  | 
Cc1cccc(Sc2c(C)c[nH]c(=O)c2N)c1 [Compound 8e] |  |  | 78 | 41.5 | 1.4 | > 55 | > 1 |  | > 4 |  |  | 
Cc1cc(C)cc(Sc2c(N)c(O)nc3ccccc23)c1 [Compound 8f, 3-amino-4-(3', 5'-dimethylphenyl)-thio-quinoline-2(1H)-one] |  | 8.2 | > 9 | 6.6 | 0.25 | > 36 | > 1.5 |  |  |  |  | 
CC(=O)Nc1c(Sc2cc(C)cc(C)c2)c(C)c[nH]c1=O [Compound 11b, 3-acetamido-5-methyl-4-(3', 5'-dimethylphenyl)thio-pyridin-2(1H)-one] | > 4 | > 100 | > 100 | > 100 | 0.067 | > 1492 |  |  |  |  |  | 
CCC(=O)Nc1c(Sc2cc(C)cc(C)c2)c(C)c[nH]c1=O [Compound 11c, 5-methyl-3-propionamido-4-(3', 5'-dimethylphenyl)thio-pyridin-2(1H)-one] | > 4 |  | > 100 |  | 41.4 | > 2 |  |  |  |  |  | 
CCc1c(C)nc(O)c(NC(C)=O)c1Sc1cc(C)cc(C)c1 [Compound 11g, 3-acetamido-5-ethyl-6-methyl-4-(3', 5'-dimethylphenyl)thio-pyridin-2(1H)-one] |  | > 100 | > 80 | 4.3 | 0.05 | > 1600 | > 23 |  |  |  |  | 
CCc1c(Sc2cc(C)cc(C)c2)cc(=O)[nH]c1C [Compound 16, 5-ethyl-6-methyl-4-(3', 5'-dimethylphenyl)thio-pyridin-2(1H)-one] | 0.4 |  | > 10 |  | 0.5 | > 20 |  |  |  |  |  | 
Cc1c(Sc2ccccc2)n(COCCO)c(=O)[nH]c1=O [HEPT, 1-[(2-hydroxyethoxy)methyl]-6-(phenylthio)thymine] | > 6 |  |  |  |  |  |  |  |  | 121 | 141 | totally inactive
